Measurements as given in US12077503B2, “Substituted cyclic amides and their use as herbicides” (FMC CORPORATION, priority 2015, dated 2024).

Legend:
Format in all cases: in vivo
[1] = system: wheat (Triticum aestivum); experiment: Test A postemergence
Excerpt: (§1) Seeds of plant species selected from barnyardgrass (Echinochloa crus-galli), Kochia (Kochia scoparia), ragweed (common ragweed, Ambrosia elatior), ryegrass, Italian (Italian ryegrass, Lolium multiflorum), crabgrass, large (Digitaria sanguinalis), giant foxtail (Setaria faberii), green foxtail (Setaria viridis), morningglory (Ipomoea spp.), pigweed (Amaranthus retroflexus), velvetleaf (Abutilon theophrasti), wheat (Triticum aestivum), and corn (Zea mays) were planted into a blend of loam soil and sand and treated preemergence with a directed soil spray using test chemicals formulated in anon-phytotoxic solvent mixture which included a surfactant.
(§2) At the same time, plants selected from these crop and weed species and also blackgrass (Alopecurus myosuroides), and Galium (catchweed bedstraw, Galium aparine) were planted in pots containing the same blend of loam soil and sand and treated with postemergence applications of test chemicals formulated in the same manner. Plants ranged in height from 2 to 10 cm and were in the one- to two-leaf stage for the postemergence treatment. Treated plants and untreated controls were maintained in a greenhouse for approximately 10 d, after which time all treated plants were compared to untreated controls and visually evaluated for injury. Plant response ratings, summarized in Table A, are based on a 0 to 100 scale where 0 is no effect and 100 is complete control. A dash (-) response means no test result.

[2] = system: Galium (catchweed bedstraw, Galium aparine); experiment: Test A postemergence
Excerpt: as §1, §2

[3] = system: pigweed (Amaranthus retroflexus); experiment: Test A postemergence
Excerpt: as §1, §2

[4] = system: barnyardgrass (Echinochloa crus-galli); experiment: Test A postemergence
Excerpt: as §1, §2

[5] = system: blackgrass (Alopecurus myosuroides); experiment: Test A postemergence
Excerpt: as §1, §2

[6] = system: giant foxtail (Setaria faberii); experiment: Test A postemergence
Excerpt: as §1, §2

[7] = system: ragweed (common ragweed, Ambrosia elatior); experiment: Test A postemergence
Excerpt: as §1, §2

corn (Zea mays) = experiment: Test A postemergence
Excerpt: as §1, §2

[8] = system: ryegrass, Italian (Italian ryegrass, Lolium multiflorum); experiment: Test A postemergence
Excerpt: as §1, §2

Kochia (Kochia scoparia) [9] = experiment: Test A postemergence
Excerpt: as §1, §2

[10] = system: pigweed (Amaranthus retroflexus); experiment: Test A preemergence; conditions: Preemergence
Excerpt: as §1, §2

[11] = system: barnyardgrass (Echinochloa crus-galli); experiment: Test A preemergence; conditions: Preemergence
Excerpt: as §1, §2

[12] = system: giant foxtail (Setaria faberii); experiment: Test A preemergence; conditions: Preemergence
Excerpt: as §1, §2

[13] = system: ragweed (common ragweed, Ambrosia elatior); experiment: Test A preemergence; conditions: Preemergence
Excerpt: as §1, §2

[14] = system: ryegrass, Italian (Italian ryegrass, Lolium multiflorum); experiment: Test A preemergence; conditions: Preemergence
Excerpt: as §1, §2

Kochia (Kochia scoparia) [15] = experiment: Test A preemergence; conditions: Preemergence
Excerpt: as §1, §2

[16] = 125 g ai/ha, postemergence, visual rating after approx. 10 d, 0 to 100 scale (0 no effect, 100 complete control)
[17] = Postemergence, 500 g ai/ha, 0 to 100 scale where 0 is no effect and 100 is complete control
[18] = 125 g ai/ha, postemergence, visual injury rating on 0 to 100 scale (0 no effect, 100 complete control), approx. 10 d
[19] = 125 g ai/ha, visual injury after approximately 10 d, 0 to 100 scale where 0 is no effect and 100 is complete control
[20] = 500 g ai/ha, visual injury approx. 10 d
[21] = 1000 g ai/ha, postemergence, 0 to 100 scale, 0 no effect, 100 complete control
[22] = 1000 g ai/ha, 0 is no effect, 100 is complete control

SMILES: O=C(Nc1ccccc1F)C1C(=O)N(CC=CBr)CC1c1cccc(C(F)(F)F)c1 (stereo not drawn) [Compound 526]
- Plant response rating, Wheat [1, 16]: 0
- Plant response rating, Wheat [1, 17]: 0
- Plant response rating, Galium [2, 16]: 0
- Plant response rating, Galium [2, 17]: 0
- Plant response rating, Pigweed [3, 16]: 0
- Plant response rating, Pigweed [3, 17]: 0
- Barnyardgrass plant response rating [4, 18]: 10
- Plant response rating, Barnyardgrass [4, 17]: 20
- Blackgrass plant response rating [5, 18]: 0
- Plant response rating, Blackgrass [5, 17]: 0
- Plant response rating, Foxtail, Giant [6, 16]: 20
- Plant response rating, Foxtail, Giant [6, 17]: 40
- Plant response rating, Ragweed [7, 16]: 0
- Plant response rating, Ragweed [7, 17]: 0
- Plant response rating, Corn (corn (Zea mays); [16]): 0
- Plant response rating, Corn (corn (Zea mays); [17]): 0
- Plant response rating, Ryegrass, Italian [8, 16]: 0
- Plant response rating, Ryegrass, Italian [8, 17]: 0
- Plant response rating, Kochia (Kochia (Kochia scoparia) [9]; [16]): 0
- Plant response rating, Kochia (Kochia (Kochia scoparia) [9]; [17]): 0
- Plant response rating, Pigweed [10, 19]: 0
- Pigweed plant response rating (0 to 100 scale, 0 is no effect, 100 is complete control) [10, 20]: 0
- Plant response rating, Barnyardgrass [11, 19]: 0
- Barnyardgrass plant response rating (0 to 100 scale, 0 is no effect, 100 is complete control) [11, 20]: 20
- Plant response rating, Foxtail, Giant [12, 19]: 70
- Foxtail, Giant plant response rating (0 to 100 scale, 0 is no effect, 100 is complete control) [12, 20]: 80
- Plant response rating, Ragweed [13, 19]: 0
- Ragweed plant response rating (0 to 100 scale, 0 is no effect, 100 is complete control) [13, 20]: 0
- Plant response rating, Ryegrass, Italian [14, 19]: 0
- Ryegrass, Italian plant response rating (0 to 100 scale, 0 is no effect, 100 is complete control) [14, 20]: 0
- Plant response rating, Kochia (Kochia (Kochia scoparia) [15]; [19]): 0
- Kochia plant response rating (0 to 100 scale, 0 is no effect, 100 is complete control) (Kochia (Kochia scoparia) [15]; [20]): 0

SMILES: O=C(Nc1cccc(F)c1F)C1C(=O)N(CC=CCl)CC1c1cc(F)cc(F)c1 (stereo not drawn) [Compound 512]
- Plant response rating, Wheat [1, 21]: 0
- Plant response rating, Galium [2, 21]: 0
- Plant response rating, Pigweed [3, 21]: 0
- Plant response rating, Barnyardgrass [4, 21]: 80
- Plant response rating, Blackgrass [5, 21]: 0
- Plant response rating, Foxtail, Giant [6, 21]: 90
- Plant response rating, Ragweed [7, 21]: 0
- Plant response rating, Corn (corn (Zea mays); [21]): 0
- Plant response rating, Ryegrass, Italian [8, 21]: 0
- Plant response rating, Kochia (Kochia (Kochia scoparia) [9]; [21]): 0
- Pigweed plant response rating (0 to 100 scale) [10, 22]: 0
- Barnyardgrass plant response rating (0 to 100 scale) [11, 22]: 80
- Foxtail, Giant plant response rating (0 to 100 scale) [12, 22]: 90
- Ragweed plant response rating (0 to 100 scale) [13, 22]: 0
- Ryegrass, Italian plant response rating (0 to 100 scale) [14, 22]: 0
- Kochia plant response rating (0 to 100 scale) (Kochia (Kochia scoparia) [15]; [22]): 0
